Earlier results on one molecule are cited in US20080146639A1, “Pharmaceutical Combination of Angiotensin II Antagonists and Angiotensin I Converting Enzyme Inhibitors” (Boehringer Ingelheim Pharma GmbH & Co Kg., priority 2000, published 2008).

For this series the following is noted: treatment with ACE inhibitor ramipril; HOPE study (New Engl. J. Med., Jan. 20, 2000).

Turning to `CCOC(=O)[C@H](CCc1ccccc1)N[C@@H](C)C(=O)N1[C@H](C(=O)O)C[C@@H]2CCC[C@@H]21` [ramipril], the “reduction of the risk of the combined primary cardiovascular outcome” value is recorded as 22%.
